Source: ChEMBL document CHEMBL5518197, “Recent advances in the development of deubiquitinases inhibitors as antitumor agents” (Eur J Med Chem, 2024)

Tests used:
Caspase-3 = biological target: T1, Caspase-3 (Homo sapiens, UniProt P42574); assay: Inhibition of caspase-3 (unknown origin) by microplate reader analysis
T1 sequence (P42574 whole entry): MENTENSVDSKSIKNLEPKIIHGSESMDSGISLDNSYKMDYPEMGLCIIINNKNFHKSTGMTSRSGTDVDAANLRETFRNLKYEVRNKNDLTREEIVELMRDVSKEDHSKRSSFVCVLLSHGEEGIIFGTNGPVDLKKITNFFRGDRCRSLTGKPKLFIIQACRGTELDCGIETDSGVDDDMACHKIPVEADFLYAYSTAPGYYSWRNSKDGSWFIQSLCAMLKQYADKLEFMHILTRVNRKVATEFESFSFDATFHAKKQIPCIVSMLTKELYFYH

HCT-116 = assay: Antiproliferative activity against human HCT-116 cells assessed as reduction in cell viability incubated for 48 hrs by MTT assay; type: functional, cell-based; conditions: HCT-116, 48 h
[1] = biological target: T2, Ubiquitin carboxyl-terminal hydrolase isozyme L1 (Homo sapiens, UniProt P09936); assay: Inhibition of His-tagged UCH-L1 (unknown origin) expressed in Escherichia coli BL21 (DE3) by fluorescence based analysis
T2 sequence (P09936 whole entry): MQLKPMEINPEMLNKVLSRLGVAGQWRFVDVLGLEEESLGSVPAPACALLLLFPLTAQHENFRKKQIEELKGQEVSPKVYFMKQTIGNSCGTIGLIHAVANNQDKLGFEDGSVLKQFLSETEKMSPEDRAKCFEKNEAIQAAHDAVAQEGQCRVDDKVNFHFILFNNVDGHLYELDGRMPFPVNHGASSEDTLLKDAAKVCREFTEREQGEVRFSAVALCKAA

[2] = biological target: T3, Ubiquitin carboxyl-terminal hydrolase 19 (Homo sapiens, UniProt O94966); assay: Inhibition of C-terminal 6-His tagged USP19 (unknown origin) (1 to 1290 residues) using Ub-Rh110MP as substrate by fluorescence based assay
T3 sequence (O94966 whole entry): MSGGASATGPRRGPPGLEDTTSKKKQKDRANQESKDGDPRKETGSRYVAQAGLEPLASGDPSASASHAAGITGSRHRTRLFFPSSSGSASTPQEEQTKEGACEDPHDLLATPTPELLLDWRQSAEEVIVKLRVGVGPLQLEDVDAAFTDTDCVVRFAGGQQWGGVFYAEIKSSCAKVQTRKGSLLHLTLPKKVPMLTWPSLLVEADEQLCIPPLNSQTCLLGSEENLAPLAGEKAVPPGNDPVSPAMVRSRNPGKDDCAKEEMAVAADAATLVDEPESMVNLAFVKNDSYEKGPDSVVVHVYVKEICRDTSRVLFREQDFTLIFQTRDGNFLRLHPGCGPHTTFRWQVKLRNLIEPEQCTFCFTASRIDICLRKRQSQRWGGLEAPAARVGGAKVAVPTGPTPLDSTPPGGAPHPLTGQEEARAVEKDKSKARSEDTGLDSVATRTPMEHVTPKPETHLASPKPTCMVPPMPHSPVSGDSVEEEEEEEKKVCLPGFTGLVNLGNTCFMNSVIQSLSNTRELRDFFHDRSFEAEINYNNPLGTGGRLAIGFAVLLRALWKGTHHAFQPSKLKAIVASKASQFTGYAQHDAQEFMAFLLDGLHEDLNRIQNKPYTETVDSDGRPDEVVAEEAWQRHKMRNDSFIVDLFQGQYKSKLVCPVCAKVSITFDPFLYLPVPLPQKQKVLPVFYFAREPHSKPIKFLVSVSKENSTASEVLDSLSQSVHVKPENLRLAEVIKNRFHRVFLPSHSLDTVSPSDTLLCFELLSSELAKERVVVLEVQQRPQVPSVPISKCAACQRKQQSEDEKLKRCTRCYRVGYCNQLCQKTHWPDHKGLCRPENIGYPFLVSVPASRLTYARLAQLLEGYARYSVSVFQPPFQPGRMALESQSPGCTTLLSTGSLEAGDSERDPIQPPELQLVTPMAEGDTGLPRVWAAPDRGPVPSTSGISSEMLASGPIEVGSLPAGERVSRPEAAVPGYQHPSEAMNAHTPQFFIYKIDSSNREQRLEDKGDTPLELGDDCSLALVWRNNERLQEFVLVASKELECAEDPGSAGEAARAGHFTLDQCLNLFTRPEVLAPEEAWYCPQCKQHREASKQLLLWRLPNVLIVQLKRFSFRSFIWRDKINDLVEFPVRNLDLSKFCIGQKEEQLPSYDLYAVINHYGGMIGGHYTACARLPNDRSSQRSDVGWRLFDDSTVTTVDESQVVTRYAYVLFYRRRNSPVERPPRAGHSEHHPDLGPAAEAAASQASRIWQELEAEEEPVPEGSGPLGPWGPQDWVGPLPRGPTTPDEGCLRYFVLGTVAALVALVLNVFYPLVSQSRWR

[3] = biological target: Ubiquitin carboxyl-terminal hydrolase 7 (Homo sapiens, UniProt Q93009); assay: Inhibition of full length His-tagged human recombinant USP7
[4] = biological target: T2, Ubiquitin carboxyl-terminal hydrolase isozyme L1; assay: Inhibition of human UCH-L1
[5] = biological target: T4, Ubiquitin carboxyl-terminal hydrolase 28 (Homo sapiens, UniProt Q96RU2); assay: Inhibition of USP28 (unknown origin)
T4 sequence (Q96RU2 whole entry): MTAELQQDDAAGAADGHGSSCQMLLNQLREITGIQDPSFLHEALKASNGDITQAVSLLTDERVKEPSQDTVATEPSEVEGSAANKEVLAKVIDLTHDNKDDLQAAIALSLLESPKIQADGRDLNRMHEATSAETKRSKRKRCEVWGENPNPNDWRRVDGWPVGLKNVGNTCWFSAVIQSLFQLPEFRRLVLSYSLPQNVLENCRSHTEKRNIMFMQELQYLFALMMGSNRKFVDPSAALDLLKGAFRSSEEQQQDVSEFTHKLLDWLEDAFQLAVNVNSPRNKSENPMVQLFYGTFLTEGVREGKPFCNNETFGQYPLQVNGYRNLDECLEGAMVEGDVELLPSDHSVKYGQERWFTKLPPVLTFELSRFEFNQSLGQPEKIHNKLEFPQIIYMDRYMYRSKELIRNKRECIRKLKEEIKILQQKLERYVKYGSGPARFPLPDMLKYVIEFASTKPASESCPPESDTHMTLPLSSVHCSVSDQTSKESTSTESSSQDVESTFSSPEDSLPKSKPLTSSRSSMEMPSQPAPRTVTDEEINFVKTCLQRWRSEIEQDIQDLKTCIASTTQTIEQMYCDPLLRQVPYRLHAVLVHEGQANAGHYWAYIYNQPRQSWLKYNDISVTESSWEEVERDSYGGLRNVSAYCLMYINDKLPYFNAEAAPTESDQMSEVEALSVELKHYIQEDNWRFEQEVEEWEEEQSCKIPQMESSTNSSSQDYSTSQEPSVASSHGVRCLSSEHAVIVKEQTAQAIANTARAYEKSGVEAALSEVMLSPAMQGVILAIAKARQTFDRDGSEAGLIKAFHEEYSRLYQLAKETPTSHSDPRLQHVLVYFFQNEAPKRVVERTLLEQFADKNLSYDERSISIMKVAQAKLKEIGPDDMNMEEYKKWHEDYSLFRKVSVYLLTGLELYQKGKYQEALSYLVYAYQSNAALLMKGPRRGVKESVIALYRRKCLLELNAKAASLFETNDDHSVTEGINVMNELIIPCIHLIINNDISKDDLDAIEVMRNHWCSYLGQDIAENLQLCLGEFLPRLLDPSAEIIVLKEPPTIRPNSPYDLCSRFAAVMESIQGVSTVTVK

[6] = biological target: T2, Ubiquitin carboxyl-terminal hydrolase isozyme L1; assay: Inhibition of recombinant wild type UCH-L1 (unknown origin) by fluorescence based analysis

Chain of Ubiquitin carboxyl-terminal hydrolase 7 (Q93009 whole entry): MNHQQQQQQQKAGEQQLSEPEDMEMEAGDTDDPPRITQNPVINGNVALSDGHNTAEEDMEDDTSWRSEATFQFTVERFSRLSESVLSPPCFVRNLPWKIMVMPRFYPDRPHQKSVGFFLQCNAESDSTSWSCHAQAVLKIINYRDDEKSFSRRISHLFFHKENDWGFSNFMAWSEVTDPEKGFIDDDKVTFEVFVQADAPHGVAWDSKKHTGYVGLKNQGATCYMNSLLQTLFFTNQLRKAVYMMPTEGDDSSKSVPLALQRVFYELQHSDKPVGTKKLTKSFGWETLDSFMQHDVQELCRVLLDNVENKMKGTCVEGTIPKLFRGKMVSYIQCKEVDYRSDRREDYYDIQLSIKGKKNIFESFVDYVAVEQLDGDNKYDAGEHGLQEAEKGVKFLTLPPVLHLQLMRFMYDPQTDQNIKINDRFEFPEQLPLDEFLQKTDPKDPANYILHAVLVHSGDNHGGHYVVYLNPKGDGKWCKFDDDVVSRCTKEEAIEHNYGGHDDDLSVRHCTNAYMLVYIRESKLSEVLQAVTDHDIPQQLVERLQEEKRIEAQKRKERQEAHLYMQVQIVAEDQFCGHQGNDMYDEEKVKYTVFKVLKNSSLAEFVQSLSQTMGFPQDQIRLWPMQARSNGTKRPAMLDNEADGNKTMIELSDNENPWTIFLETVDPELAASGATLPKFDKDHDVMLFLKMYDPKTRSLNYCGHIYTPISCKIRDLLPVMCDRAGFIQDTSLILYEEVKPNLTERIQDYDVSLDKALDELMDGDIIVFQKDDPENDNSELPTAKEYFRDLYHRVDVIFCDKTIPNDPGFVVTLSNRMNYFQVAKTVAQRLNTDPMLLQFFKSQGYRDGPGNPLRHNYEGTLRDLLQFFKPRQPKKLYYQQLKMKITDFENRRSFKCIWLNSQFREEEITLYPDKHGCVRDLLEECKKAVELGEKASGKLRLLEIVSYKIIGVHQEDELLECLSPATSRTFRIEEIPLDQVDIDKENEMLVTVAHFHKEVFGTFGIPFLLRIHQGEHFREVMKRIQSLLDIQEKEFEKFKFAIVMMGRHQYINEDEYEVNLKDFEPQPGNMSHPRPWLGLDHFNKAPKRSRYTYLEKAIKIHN

SMILES: C=CC(=O)N1CC/C(=C\c2ccc(F)c([N+](=O)[O-])c2)C(=O)/C(=C/c2ccc(F)c([N+](=O)[O-])c2)C1
- IC50 (Caspase-3): 580 nM

SMILES: Cc1ccc(S(=O)(=O)Nc2cc(C(F)(F)F)ccc2C(=O)Nc2nc(-c3ccccc3)cs2)cc1
- IC50 (HCT-116): 1100 nM

SMILES: COC(=O)CC[C@H](NC(=O)[C@H](C)NC[C@@H](NC(=O)OCc1ccccc1)C(C)C)C(=O)CF
- IC50 [1]: 7700 nM

SMILES: O=C1c2ccccc2C(=O)c2oc(-c3ccc(F)cc3)nc21
- IC50 [2]: 880 nM

SMILES: O=C(CCc1ccccc1)N1CCC(O)(Cn2cnc3cc(Cl)ccc3c2=O)CC1
- IC50 [3]: 193 nM

SMILES: C=CC(=O)N1C/C(=C\c2ccc([N+](=O)[O-])cc2)C(=O)/C(=C/c2ccc([N+](=O)[O-])cc2)C1
- IC50 (Caspase-3): 1050 nM

SMILES: O=C1c2ccccc2C(=O)c2oc(-c3ccccc3)nc21
- IC50 [2]: 544 nM

SMILES: CCc1ccc(S(=O)(=O)Nc2ccc(-c3ccc(NS(=O)(=O)c4ccc(CC)cc4)cc3)cc2)cc1
- IC50 [4]: 15000 nM

SMILES: OCCNCc1cc(Br)ccc1OCc1ccccc1
- IC50 [5]: 29600 nM

SMILES: N#CN1CCC[C@H]1C(=O)N1CCc2c(-c3cn[nH]c3C(F)(F)F)cccc21
- IC50 [6]: 670 nM
